According to patent US6228843A (priority 2000, dated 2001):

Legend:
PKC-α and β = assay: PKC activity in PA SMC preparation; assay type: cell-based, bovine
[1] = tested on: adult bovine pulmonary artery smooth muscle cells; assay type: cell-based
Description: (§1) Hypoxic growth was induced by priming with the PKC activator, 10 nM PMA. Proliferative response was measured by ^3 H-thymidine incorporation and cell counts. Isozyme expression was measured by Western blot.

PKC-α [2] = target: T1, PKC-α (Mus musculus, UniProt P20444); assay: PKC-α protein levels in whole lung homogenates of treated mice; assay type: in vivo; settings: chronic treatment of mice
T1 construct: PKC-α protein levels in whole lung homogenates; from tissue; host or cells: whole lung homogenates of treated mice

PKC-α [3] = target: T2, PKC-α (Bos taurus, UniProt P04409); assay: PKC isozyme expression by Western blot: PKC-α degradation; assay type: cell-based, bovine
T2 construct: proteolytic degradation of PKC-α in smooth muscle cells; endogenous in cells; host or cells: adult bovine pulmonary artery smooth muscle cells (PA SMC)
Description: as §1

PKC βI = target: T3, PKC βI (Bos taurus, UniProt P05126); assay: PKC isozyme expression by Western blot: βI; assay type: cell-based, bovine; settings: adult PA SMC
T3 construct: isozyme expressed in these adult cells (βI); endogenous in cells; host or cells: adult bovine pulmonary artery smooth muscle cells (PA SMC)
T3 sequence (P05126 whole entry): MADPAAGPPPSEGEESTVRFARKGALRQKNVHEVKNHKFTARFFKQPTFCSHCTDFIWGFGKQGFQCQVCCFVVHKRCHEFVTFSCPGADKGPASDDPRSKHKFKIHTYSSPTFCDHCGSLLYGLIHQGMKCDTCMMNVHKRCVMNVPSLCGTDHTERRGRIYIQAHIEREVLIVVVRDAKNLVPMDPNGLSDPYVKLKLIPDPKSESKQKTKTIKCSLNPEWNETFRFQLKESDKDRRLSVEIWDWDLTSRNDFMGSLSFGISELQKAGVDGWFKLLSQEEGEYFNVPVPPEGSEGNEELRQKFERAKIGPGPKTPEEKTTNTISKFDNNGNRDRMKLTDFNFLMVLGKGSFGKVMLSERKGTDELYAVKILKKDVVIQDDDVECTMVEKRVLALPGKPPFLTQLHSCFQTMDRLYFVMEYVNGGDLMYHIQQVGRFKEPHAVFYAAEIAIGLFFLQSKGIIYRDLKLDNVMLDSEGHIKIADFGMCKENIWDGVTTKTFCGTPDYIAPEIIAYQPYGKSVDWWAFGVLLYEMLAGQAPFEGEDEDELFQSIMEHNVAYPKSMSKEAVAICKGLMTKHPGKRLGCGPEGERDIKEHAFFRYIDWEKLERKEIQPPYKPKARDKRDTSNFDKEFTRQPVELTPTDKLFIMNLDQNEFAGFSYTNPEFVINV
Description: […]. Hypoxic growth was induced by priming with the PKC activator, 10 nM PMA. Proliferative response was measured by ^3 H-thymidine incorporation and cell counts. Isozyme expression was measured by Western blot. […]. […] […].

SMILES | activity of PKC-α and β (FIG. 4) (PKC-α and β) | hypoxia-induced PA SMC proliferation (FIG. 4) [1] | PKC-α protein levels in whole lung homogenates (FIG. 8) (PKC-α [2]) | threshold concentration to induce PKC-α degradation (PKC-α [3]) [nM] | time at which PKC-α degradation is complete (PKC-α [3]; 100 nM) [h] | time at which PKC-α degradation is first detectable (PKC-α [3]; 100 nM) [h] | dose dependence of PKC-α degradation and hypoxic growth (FIG. 6) (PKC-α [3]; bovine PA SMC) | time dependence of PKC-α degradation (FIG. 5) (PKC-α [3]; bovine PA SMC) | degradation of Ca2+-dependent isozyme βI (PKC βI)
Cn1c2ccccc2c2c3c(c4c5ccccc5n(CCC#N)c4c21)CNC3=O [Go6976] | inhibits activity of PKC-α and β | inhibits hypoxia-induced PA SMC proliferation | – | – | – | – | – | – | –
CCCC=CC=CC(=O)OC1C(=CC(=O)OC)CC2CC(C(C)O)OC(=O)CC(O)CC3CC(OC(C)=O)C(C)(C)C(O)(CC4CC(=CC(=O)OC)CC(C=CC(C)(C)C1(O)O2)O4)O3 (stereo not drawn) [bryostatin-1] | – | – | decreases PKC-α protein levels | 10 | ≤ 24 | ≤ 1 | dose-dependent effect | time dependent | No degradation
